From publication PMC3160329, “Functional Dissection of the Proton Pumping Modules of Mitochondrial Complex I” (PLoS Biology, 2011) come the findings set out here.

The assay deals with T1, subcomplex nb8mΔ (Yarrowia lipolytica, UniProt Q9B6E8+Q9UUT7+Q9UUU1+Q9UUU2).
T1 construct: gene nucm; complex I subcomplex lacking 14 subunits of the PD module (incl. ND4, ND5, NB8M); about 680 kDa; C-terminal His tag on NUGM; purified, asolectin proteoliposomes; with NADH-ubiquinone oxidoreductase 75 kDa subunit; NADH-ubiquinone oxidoreductase 30 kDa subunit; NADH-ubiquinone oxidoreductase 24 kDa subunit; NADH-ubiquinone oxidoreductase 23 kDa subunit; NADH-ubiquinone oxidoreductase chain 2; NADH-ubiquinone oxidoreductase chain 3; NADH-ubiquinone oxidoreductase chain 6; NADH-ubiquinone oxidoreductase chain 4L
The experiment in a line: NADH:DBQ oxidoreductase activity, NADH oxidation. The settings on record: 100 µM DBQ, 100 µM NADH, pH 7.2, 30 °C, proteoliposomes. Format: biochemical.

On to `CCCCCCCCCCC1=C(C)C(=O)C(OC)=C(OC)C1=O` [DBQ, decylubiquinone], for which, under “electron acceptor”, the “NADH:DBQ oxidoreductase activity, NADH oxidation” value is “addition of NADH and the ubiquinone analogue DBQ to subcomplex nb8mΔ proteoliposomes”.
As for `NC(=O)C1=CN([C@@H]2O[C@H](COP(=O)(O)OP(=O)(O)OC[C@H]3O[C@@H](n4cnc5c(N)ncnc54)[C@H](O)[C@@H]3O)[C@@H](O)[C@H]2O)C=CC1` [NADH], for the setting “electron donor”, the “NADH:DBQ oxidoreductase activity, NADH oxidation” value is “addition of NADH and the ubiquinone analogue DBQ to subcomplex nb8mΔ proteoliposomes”.
